Experiments:
[1] = biological target: T1, Dimer of Gag-Pol polyprotein [489-587] (Human immunodeficiency virus 1, UniProt P12497); assay: Protease Inhibition Assay; conditions: pH 6.25; 37 °C
T1 construct: 489-587
Description: (§1) Enzymatic activity was measured by following cleavage of the substrate H-Lys-Ala-Arg-Val-Leu-pNph-Glu-Ala-Nle-NH2. Products of the cleavage reaction were quantified by HPLC detection.

[2] = biological target: T2, Dimer of Gag-Pol polyprotein [514-612] (Human immunodeficiency virus 2, UniProt P04584); assay: Protease Inhibition Assay; conditions: pH 4.7; 37 °C
T2 construct: 514-612
T2 sequence (P04584 whole entry): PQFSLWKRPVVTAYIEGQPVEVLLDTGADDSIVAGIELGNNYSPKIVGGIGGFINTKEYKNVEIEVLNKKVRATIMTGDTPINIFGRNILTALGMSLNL
Description: as §1

SMILES | Ki [1] [nM] | Ki [2] [nM]
CC(C)C1NC(=O)[C@@H](C(O)[C@H](Cc2ccccc2)NC(=O)[C@@H](NC(=O)CSc2nncn2C)C(C)(C)C)NCc2ccc(cc2)OCCOCCNC1=O (stereo partly drawn) [(2S)-N-[(1S,2S)-1-[(10R,13R)-9,12-dioxo-10-(propan-2-yl)-2,5-dioxa-8,11,14-triazabicyclo[14.2.2]icosa-1(18),16,19-trien-13-yl]-1-hydroxy-3-phenylpropan-2-yl]-3,3-dimethyl-2-{2-[(4-methyl-4H-1,2,4-triazol-3-yl)sulfanyl]acetamido}butanamide] | 11.1 | –
CC(C)C1NC(=O)[C@@H](C(O)[C@H](Cc2ccccc2)NC(=O)OC2CCOC2)NCc2ccc(cc2)OCCOCCNC1=O (stereo partly drawn) [(3R)-oxolan-3-yl N-[(1S,2S)-1-[(10R,13R)-9,12-dioxo-10-(propan-2-yl)-2,5-dioxa-8,11,14-triazabicyclo[14.2.2]icosa-1(18),16,19-trien-13-yl]-1-hydroxy-3-phenylpropan-2-yl]carbamate] | 8.2 | –
CC(C)C1NC(=O)[C@@H](C(O)[C@H](Cc2ccccc2)NC(=O)[C@@H](NC(=O)OCc2ccccc2)C(C)C)NCc2ccc(cc2)OCCCCNC1=O (stereo partly drawn) [benzyl N-[(1S)-1-{[(1S,2S)-1-[(9R,12R)-8,11-dioxo-9-(propan-2-yl)-2-oxa-7,10,13-triazabicyclo[13.2.2]nonadeca-1(17),15,18-trien-12-yl]-1-hydroxy-3-phenylpropan-2-yl]carbamoyl}-2-methylpropyl]carbamate] | 6.6 | –
CC(C)C1NC(=O)[C@@H](C(O)[C@H](Cc2ccccc2)NC(=O)[C@@H](NC(=O)OCc2ccccc2)C(C)(C)C)NCc2ccc(cc2)OCCOCCNC1=O (stereo partly drawn) [benzyl N-[(1S)-1-{[(1S,2S)-1-[(10R,13R)-9,12-dioxo-10-(propan-2-yl)-2,5-dioxa-8,11,14-triazabicyclo[14.2.2]icosa-1(18),16,19-trien-13-yl]-1-hydroxy-3-phenylpropan-2-yl]carbamoyl}-2,2-dimethylpropyl]carbamate] | 8 | 16
CC(C)C1NC(=O)[C@@H](C(O)[C@H](Cc2ccccc2)NC(=O)[C@@H](NC(=O)OCc2ccccc2)C(C)C)NCc2ccc(cc2)OCCOCCNC1=O (stereo partly drawn) [benzyl N-[(1S)-1-{[(1S,2S)-1-[(10R,13R)-9,12-dioxo-10-(propan-2-yl)-2,5-dioxa-8,11,14-triazabicyclo[14.2.2]icosa-1(18),16,19-trien-13-yl]-1-hydroxy-3-phenylpropan-2-yl]carbamoyl}-2-methylpropyl]carbamate] | 7.9 | 19
CC(C)C1NC(=O)[C@@H](C(O)[C@H](Cc2ccccc2)NC(=O)[C@@H](NC(=O)OCc2ccccc2)C(C)C)NCc2ccc(cc2)OCCOCCOCCNC1=O (stereo partly drawn) [benzyl N-[(1S)-1-{[(1S,2S)-1-[(13R,16R)-12,15-dioxo-13-(propan-2-yl)-2,5,8-trioxa-11,14,17-triazabicyclo[17.2.2]tricosa-1(21),19,22-trien-16-yl]-1-hydroxy-3-phenylpropan-2-yl]carbamoyl}-2-methylpropyl]carbamate] | 6.9 | 27
CC(C)C1NC(=O)[C@@H](C(O)[C@H](Cc2ccccc2)NC(=O)[C@@H](NC(=O)OCc2ccccc2)C(C)C)NCc2cccc(c2)OCCOCCOCCNC1=O (stereo partly drawn) [benzyl N-[(1S)-1-{[(1S,2S)-1-[(13R,16R)-12,15-dioxo-13-(propan-2-yl)-2,5,8-trioxa-11,14,17-triazabicyclo[17.3.1]tricosa-1(22),19(23),20-trien-16-yl]-1-hydroxy-3-phenylpropan-2-yl]carbamoyl}-2-methylpropyl]carbamate] | 7.7 | –
COc1ccc(CN[C@@H](C(=O)N[C@H]2c3ccccc3CC2O)C(O)[C@H](Cc2ccccc2)NC(=O)[C@@H](NC(=O)OCc2ccccc2)C(C)(C)C)cc1 (stereo partly drawn) [benzyl N-[(1S)-1-{[(2S,3S,4R)-3-hydroxy-4-{[(1S,2S)-2-hydroxy-2,3-dihydro-1H-inden-1-yl]carbamoyl}-4-{[(4-methoxyphenyl)methyl]amino}-1-phenylbutan-2-yl]carbamoyl}-2,2-dimethylpropyl]carbamate] | 9.5 | 50
COc1ccc(CN[C@@H](C(=O)NC(C(=O)NCc2nc3ccccc3[nH]2)C(C)C)C(O)[C@H](Cc2ccccc2)NC(=O)[C@@H](NC(=O)OCc2ccccc2)C(C)C)cc1 (stereo partly drawn) [benzyl N-[(1S)-1-{[(2S,3S,4R)-4-{[(1R)-1-[(1H-1,3-benzodiazol-2-ylmethyl)carbamoyl]-2-methylpropyl]carbamoyl}-3-hydroxy-4-{[(4-methoxyphenyl)methyl]amino}-1-phenylbutan-2-yl]carbamoyl}-2-methylpropyl]carbamate] | 3.4 | –
CC(C)C1NC(=O)[C@@H](C(O)[C@H](Cc2ccccc2)NC(=O)OC(C)(C)C)NCc2ccc(cc2)OCCCCNC1=O (stereo partly drawn) [tert-butyl N-[(1S,2S)-1-[(9R,12R)-8,11-dioxo-9-(propan-2-yl)-2-oxa-7,10,13-triazabicyclo[13.2.2]nonadeca-1(17),15,18-trien-12-yl]-1-hydroxy-3-phenylpropan-2-yl]carbamate] | 17 | –
CC(C)C1NC(=O)[C@@H](C(O)[C@H](Cc2ccccc2)NC(=O)OC(C)(C)C)NCc2ccc(cc2)OCCOCCNC1=O (stereo partly drawn) [tert-butyl N-[(1S,2S)-1-[(10R,13R)-9,12-dioxo-10-(propan-2-yl)-2,5-dioxa-8,11,14-triazabicyclo[14.2.2]icosa-1(18),16,19-trien-13-yl]-1-hydroxy-3-phenylpropan-2-yl]carbamate] | 14 | –
CC(C)C1NC(=O)[C@@H](C(O)[C@H](Cc2ccccc2)NC(=O)OC(C)(C)C)NCc2cccc(c2)OCCOCCOCCNC1=O (stereo partly drawn) [tert-butyl N-[(1S,2S)-1-[(13R,16R)-12,15-dioxo-13-(propan-2-yl)-2,5,8-trioxa-11,14,17-triazabicyclo[17.3.1]tricosa-1(22),19(23),20-trien-16-yl]-1-hydroxy-3-phenylpropan-2-yl]carbamate] | 208 | –
CC(C)C1NC(=O)[C@@H](C(O)[C@H](Cc2ccccc2)NC(=O)OC(C)(C)C)NCc2ccc(cc2)OCCOCCOCCOCCNC1=O (stereo partly drawn) [tert-butyl N-[(1S,2S)-1-[(16R,19R)-15,18-dioxo-16-(propan-2-yl)-2,5,8,11-tetraoxa-14,17,20-triazabicyclo[20.2.2]hexacosa-1(24),22,25-trien-19-yl]-1-hydroxy-3-phenylpropan-2-yl]carbamate] | 23.2 | –
